Data reported in patent US6498139B1, “Remedies for diseases caused by insulin resistance” (Daiichi Pharmaceutical Co., Ltd., priority 1997, dated 2002).

Test system: 14-3-3 protein binding to IRS-1
Assay: Amount of 14-3-3 protein binding to IRS-1 in HepG2 hepatoma cells overexpressing IRS-1
Format: cell-based
Conditions: IRS-1 overexpressed by adenovirus expression system

Compound | amount of 14-3-3 protein binding to IRS-1
insulin | not changed
C=C1[C@@H](O)[C@@H]2O[C@]3(CC[C@H](/C=C/[C@@H](C)[C@@H]4CC(C)=C[C@@]5(O[C@H](C[C@@](C)(O)C(=O)O)CC[C@H]5O)O4)O3)CC[C@H]2O[C@@H]1[C@@H](O)C[C@H](C)[C@H]1O[C@@]2(CCCCO2)CC[C@H]1C [okadaic acid] | significantly increased
